# Where two headings read alike, the source gives them in different places.
# Tests used:
# Assay in all cases: receptor binding assay (NIMH PDSP)
# [1] = target: T1, 5-HT1A (Homo sapiens, UniProt P08908)
# T1 construct: gene HTR1A; cloned receptor, NIMH PDSP panel
# T1 sequence (P08908 1-422): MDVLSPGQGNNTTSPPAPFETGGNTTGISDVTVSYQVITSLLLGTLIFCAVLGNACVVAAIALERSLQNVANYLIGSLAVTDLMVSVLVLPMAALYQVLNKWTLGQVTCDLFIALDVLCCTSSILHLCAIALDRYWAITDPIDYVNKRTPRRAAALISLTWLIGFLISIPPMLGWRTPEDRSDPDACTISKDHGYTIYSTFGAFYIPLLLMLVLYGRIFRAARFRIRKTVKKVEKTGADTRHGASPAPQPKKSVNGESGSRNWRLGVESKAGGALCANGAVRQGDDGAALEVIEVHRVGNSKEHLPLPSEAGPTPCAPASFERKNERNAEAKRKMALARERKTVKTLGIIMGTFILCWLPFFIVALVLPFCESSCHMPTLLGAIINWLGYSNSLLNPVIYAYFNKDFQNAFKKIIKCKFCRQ
# Text: receptor binding assay (NIMH PDSP) on 5-HT1A
# [2] = target: T2, 5-HT7 (Homo sapiens, UniProt P34969)
# T2 construct: gene HTR7; cloned receptor, NIMH PDSP panel
# Text: receptor binding assay (NIMH PDSP) on 5-HT7
# [3] = target: T3, 5-HT5A (Homo sapiens, UniProt P47898)
# T3 construct: gene HTR5A; cloned receptor, NIMH PDSP panel
# Text: receptor binding assay (NIMH PDSP) on 5-HT5A
# [4] = target: T4, 5-HT1B (Homo sapiens, UniProt P28222)
# T4 construct: gene HTR1B; cloned receptor, NIMH PDSP panel
# Text: receptor binding assay (NIMH PDSP) on 5-HT1B
# [5] = target: T5, 5-HT6 (Homo sapiens, UniProt P50406)
# T5 construct: gene HTR6; cloned receptor, NIMH PDSP panel
# Text: receptor binding assay (NIMH PDSP) on 5-HT6
# [6] = target: T6, 5-HT1D (Homo sapiens, UniProt P28221)
# T6 construct: gene HTR1D; cloned receptor, NIMH PDSP panel
# Text: receptor binding assay (NIMH PDSP) on 5-HT1D
# [7] = target: T7, 5-HT1E (Homo sapiens, UniProt P28566)
# T7 construct: gene HTR1E; cloned receptor, NIMH PDSP panel
# Text: receptor binding assay (NIMH PDSP) on 5-HT1E
# [8] = target: T8, 5-HT2B (Homo sapiens, UniProt P41595)
# T8 construct: gene HTR2B; cloned receptor, NIMH PDSP panel
# T8 sequence (P41595 whole entry): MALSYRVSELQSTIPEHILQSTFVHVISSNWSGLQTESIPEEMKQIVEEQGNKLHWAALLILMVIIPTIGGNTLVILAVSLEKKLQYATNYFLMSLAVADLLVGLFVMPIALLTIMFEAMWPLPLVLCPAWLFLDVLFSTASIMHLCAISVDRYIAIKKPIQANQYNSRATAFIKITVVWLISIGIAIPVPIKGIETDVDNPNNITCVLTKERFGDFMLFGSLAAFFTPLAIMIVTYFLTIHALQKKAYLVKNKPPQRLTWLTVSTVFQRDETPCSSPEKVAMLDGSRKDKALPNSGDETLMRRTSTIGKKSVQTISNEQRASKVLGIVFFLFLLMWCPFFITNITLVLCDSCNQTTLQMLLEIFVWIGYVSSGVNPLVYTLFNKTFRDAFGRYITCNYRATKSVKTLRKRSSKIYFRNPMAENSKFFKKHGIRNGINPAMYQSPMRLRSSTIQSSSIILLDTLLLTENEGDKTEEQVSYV
# T3 sequence (P47898 whole entry): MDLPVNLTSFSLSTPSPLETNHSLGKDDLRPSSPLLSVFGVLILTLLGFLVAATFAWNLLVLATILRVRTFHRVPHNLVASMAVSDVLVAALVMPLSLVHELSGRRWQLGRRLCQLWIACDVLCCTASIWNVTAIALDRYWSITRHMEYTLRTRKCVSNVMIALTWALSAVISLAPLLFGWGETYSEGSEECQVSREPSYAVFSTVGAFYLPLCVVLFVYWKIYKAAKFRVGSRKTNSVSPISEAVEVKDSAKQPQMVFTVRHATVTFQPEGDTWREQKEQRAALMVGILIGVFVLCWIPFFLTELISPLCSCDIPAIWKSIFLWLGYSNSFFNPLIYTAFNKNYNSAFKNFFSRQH
# T5 sequence (P50406 whole entry): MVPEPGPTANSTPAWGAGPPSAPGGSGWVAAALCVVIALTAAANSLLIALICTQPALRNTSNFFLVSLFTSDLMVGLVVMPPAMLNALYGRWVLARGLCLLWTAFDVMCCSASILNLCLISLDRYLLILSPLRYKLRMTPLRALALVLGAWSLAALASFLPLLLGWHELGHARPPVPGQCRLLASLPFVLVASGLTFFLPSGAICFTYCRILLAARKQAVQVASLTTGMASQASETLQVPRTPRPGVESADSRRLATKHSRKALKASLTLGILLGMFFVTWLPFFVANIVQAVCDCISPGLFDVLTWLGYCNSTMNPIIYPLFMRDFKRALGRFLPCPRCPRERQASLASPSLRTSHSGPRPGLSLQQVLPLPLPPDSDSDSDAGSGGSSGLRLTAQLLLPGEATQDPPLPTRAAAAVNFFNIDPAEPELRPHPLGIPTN
# T6 sequence (P28221 whole entry): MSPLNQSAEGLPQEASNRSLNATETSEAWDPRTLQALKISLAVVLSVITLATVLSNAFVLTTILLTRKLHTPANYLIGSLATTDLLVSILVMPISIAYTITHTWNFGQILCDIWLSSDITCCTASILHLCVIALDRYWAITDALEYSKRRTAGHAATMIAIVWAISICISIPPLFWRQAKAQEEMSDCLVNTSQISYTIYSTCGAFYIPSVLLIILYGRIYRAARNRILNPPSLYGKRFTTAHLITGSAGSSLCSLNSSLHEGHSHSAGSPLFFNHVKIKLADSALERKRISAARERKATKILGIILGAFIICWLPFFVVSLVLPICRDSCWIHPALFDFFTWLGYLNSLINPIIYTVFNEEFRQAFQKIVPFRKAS
# T7 sequence (P28566 whole entry): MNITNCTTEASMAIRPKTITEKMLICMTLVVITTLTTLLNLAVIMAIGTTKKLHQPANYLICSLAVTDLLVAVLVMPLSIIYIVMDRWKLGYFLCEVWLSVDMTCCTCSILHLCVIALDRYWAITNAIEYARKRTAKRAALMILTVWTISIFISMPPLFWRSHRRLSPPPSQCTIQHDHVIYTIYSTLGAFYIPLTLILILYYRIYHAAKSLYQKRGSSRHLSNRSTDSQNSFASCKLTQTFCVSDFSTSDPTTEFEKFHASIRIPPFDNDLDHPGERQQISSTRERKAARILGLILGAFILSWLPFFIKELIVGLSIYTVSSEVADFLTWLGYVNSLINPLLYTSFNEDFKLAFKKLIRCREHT
# T2 sequence (P34969 whole entry): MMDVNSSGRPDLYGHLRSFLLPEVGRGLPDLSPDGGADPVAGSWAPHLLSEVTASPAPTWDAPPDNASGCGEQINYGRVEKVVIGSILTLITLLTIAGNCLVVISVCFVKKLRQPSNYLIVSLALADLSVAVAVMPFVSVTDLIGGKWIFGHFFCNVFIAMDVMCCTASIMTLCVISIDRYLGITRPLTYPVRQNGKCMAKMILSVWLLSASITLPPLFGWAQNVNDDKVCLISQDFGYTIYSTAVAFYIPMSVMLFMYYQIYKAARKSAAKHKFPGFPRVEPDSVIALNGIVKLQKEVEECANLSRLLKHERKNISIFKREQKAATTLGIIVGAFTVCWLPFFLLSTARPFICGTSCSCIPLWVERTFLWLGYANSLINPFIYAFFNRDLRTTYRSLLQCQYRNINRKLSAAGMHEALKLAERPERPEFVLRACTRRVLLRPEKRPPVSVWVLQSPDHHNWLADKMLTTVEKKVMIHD
# T4 sequence (P28222 whole entry): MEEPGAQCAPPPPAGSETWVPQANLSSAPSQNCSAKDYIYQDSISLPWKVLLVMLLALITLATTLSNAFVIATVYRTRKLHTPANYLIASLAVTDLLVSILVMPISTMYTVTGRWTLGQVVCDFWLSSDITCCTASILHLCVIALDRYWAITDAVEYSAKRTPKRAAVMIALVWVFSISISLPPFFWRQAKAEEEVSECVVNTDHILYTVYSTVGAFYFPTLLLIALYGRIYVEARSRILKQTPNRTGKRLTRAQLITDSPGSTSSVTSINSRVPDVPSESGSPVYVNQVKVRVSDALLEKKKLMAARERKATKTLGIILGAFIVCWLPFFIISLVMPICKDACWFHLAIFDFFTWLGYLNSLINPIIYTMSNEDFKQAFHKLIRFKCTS
Compound,Ki ([1]; read-out: Compound 2a Ki) [nM],Ki [2] [nM],Ki [3] [nM],Ki [4] [nM],Ki [5] [nM],Ki [6] [nM],Ki [7] [nM],Ki [8] [nM],Ki [1] [nM]
"2-(1H-indol-3-yl)-N,N-dimethylethanamine [2a]",110 ± 17,–,–,–,–,–,–,–,–
"CN(C)CCc1c[nH]c2ccccc12 [2a, 2-(1H-indol-3-yl)-N,N-dimethylethanamine]",–,77 ± 16,> 10000,66 ± 9,189 ± 32.5,29.3 ± 3.7,> 10000,–,–
"CN(C)CCc1c[nH]c2ccc(I)cc12 [2e, 2-(5-iodo-1H-indol-3-yl)-N,N-dimethylethanamine]",–,116 ± 13,1250,43 ± 5,198 ± 20,8.5 ± 1.38,310 ± 33,98 ± 4,130 ± 16

# From PMC5577603, “Marine Inspired 2-(5-Halo-1H-indol-3-yl)-N,N-dimethylethanamines as Modulators of Serotonin Receptors: An Example Illustrating the Power of Bromine as Part of the Uniquely Marine Chemical Space” (Marine Drugs, 2017)
